Values quoted from earlier work as cited in patent US7750010B2, “Tricyclic anilide spirohydantion CGRP receptor antagonists” (Merck Sharp & Dohme Corp., priority 2004, dated 2010).
No end group written: not given here.

Experiments:
facial blood flow [1] = conditions: marmoset, electrical stimulation of the trigeminal ganglion
middle meningeal artery = conditions: rats, electrical stimulation of the dura mater, prior administration
facial blood flow [2] = conditions: rat, trigeminal ganglion stimulation

Molecule | effect on increase in facial blood flow (facial blood flow [1]) | effect on increase in diameter of the middle meningeal artery (middle meningeal artery) | effect on increased facial blood flow (facial blood flow [2])
NCCCC[C@H](NC(=O)[C@@H](Cc1cc(Br)c(O)c(Br)c1)NC(=O)N1CCC(N2Cc3ccccc3NC2=O)CC1)C(=O)N1CCN(c2ccncc2)CC1 [BIBN4096BS] | could be blocked |  | 
CGRP(8-37): a fragment of CGRP that lacks seven N-terminal amino acid residues; a peptide CGRP antagonist (VTHRLAGLLSRSGGVVKNNFVPTNVGSKAF; ends and bridges not checked; UniProt P06881 90-119, looked up, fragment) |  | blocked | inhibited
